Measured values: ChEMBL document CHEMBL1125026, “Synthesis and estrogen receptor binding of novel 11 beta-substituted estra-1,3,5(10)-triene-3,17 beta-diols” (J Med Chem, 1990)

Target: Estrogen receptor (Rattus norvegicus) (UniProt P06211+Q62986)
Test: Relative binding affinity for rat uterine estrogen receptor at 25 degree C
Type: protein assay

## C[C@]12CC[C@@H]3c4ccc(O)cc4CC[C@H]3[C@@H]1C[C@@H](F)[C@@H]2O
  RBA: 60
